Assay results: US5776950
Like-named read-outs stand apart in the source and are kept apart here.

Conditions: amide bond, 24-membered ring
[1] = 2-chloro-1-methylpyridinium iodide/TEA, DCM, 4.2 mM, 25.0 °C

Work on “cyclo(D-2-hydroxy-3-phenylpropanoyl-L-prolyl-D-2-hydroxypropanoyl-N-methyl-L-leucyl-D-2-hydroxy-3-phenylpropanoyl-N-methyl-L-leucyl-D-2-hydroxypropanoyl-N-methyl-L-leucyl)” yielded a ring closure, isolated yield (2-chloro-1-methylpyridinium iodide/TEA, DCM, 5.9 mM, 25.0 °C) of 12%.

“H-MeLeu-dLac-MeLeu-dPhLac-MeLeu-[3-oxy-2-oxopiperidin-1-yl (delta-lactam, replaces Lac + N-Me)]Leu-dPhLac-OH?” showed a ring closure, isolated yield (the molecule shown is the open-chain precursor, BOP-Cl/DIEA, CH2Cl2, 0.99 mM) of 65%.

“H-MeLeu-dLac-MeLeu-dLac-MeLeu-[3-oxy-2-oxopiperidin-1-yl (delta-lactam, replaces Lac + N-Me)]Leu-dPhLac-OH?” showed a ring closure, isolated yield (the molecule shown is the open-chain precursor, BOP-Cl/DIEA, CH2Cl2, 0.98 mM) of 48%.

In the case of “cyclo(D-2-hydroxy-3-phenylpropanoyl-L-pipecolyl-D-2-hydroxypropanoyl-N-methyl-L-leucyl-D-2-hydroxy-3-phenylpropanoyl-N-methyl-L-leucyl-D-2-hydroxypropanoyl-N-methyl-L-leucyl)”, the ring closure, isolated yield [1] is reported as 50%.

In the case of “cyclo(D-2-hydroxypropanoyl-L-N-δ-tetrahydroquinoline-3-carboxyl-D-2- hydroxy-3-phenylpropanoyl-N-methyl-L-leucyl-D-2-hydroxypropanoyl-N-methyl-L-leucyl-D-2-hydroxy-3-phenylpropanoyl-N-methyl-L-leucyl)”, the ring closure, isolated yield [1] is reported as 42%.

Work on “cylo(D-2-hydroxypropanoyl-L-N-α-tetrahydroquinoline-3-carboxyl-D-2-hydroxypropanoyl-N-methyl-L-leucyl-D-2-hydroxypropanoyl-N-methyl-L-leucyl-D- 2-hydroxypropanoyl-N-methyl-L-leucyl)” yielded a ring closure, isolated yield (2-chloro-1-methylpyridinium iodide/TEA, DCM, 6.0 mM, 25.0 °C) of 50%.

With “cvlo(D-2-hydroxypropanoyl-L-pipecolyl-D-2-hydroxypropanoyl-N-methyl-L-leucyl-D-2-hydroxypropanoyl-N-methyl-L-leucyl-D-2-hydroxypropanoyl-N-methyl-L-leucyl)” the ring closure, isolated yield (2-chloro-1-methylpyridinium iodide/TEA, DCM, 4.75 mM, 25.0 °C) was 34%.
